Measurements published in US8158352B2, “Screening of a novel hepatic syndrome and its uses” (Assistance Publique-Hopitaux de Paris, priority 2000, dated 2012).

System: hepatic bile of patients with intrahepatic cholestasis, cholesterol microcholelithiasis and MDR3 gene abnormality
Assay: Bile lipid composition of the hepatic bile from patients receiving treatment with UDCA
Format: in vivo, human
Details: for Cholesterol saturation index (CSI): calculated from Carey's critical tables
Protocol: The concentration of total bile salts is measured by an enzymatic technique using 3α-hydroxysteroid dehydrogenase (Enzabile, Nycomed, Oslo, Norway). The content of total phospholipids is determined by an enzymatic method in the presence of phospholipase D and choline oxidase. The cholesterol is determined by an enzymatic reaction with cholesterol oxidase or cholesterol esterase. The cholesterol saturation indices for the hepatic bile samples are calculated from Carey's critical tables (J. Lipid Res., 1978, 19, 945-955).
The bile lipid composition of the hepatic bile was studied using samples obtained by radioscopy of the duodenum (patients 2 and 3) or using a T tube (patients 5 and 6). The results obtained in the untreated patients or the patients receiving treatment with UDCA are given respectively in Tables V and VI below.

[1] = Case 5, receiving treatment with UDCA
[2] = Case 6, receiving treatment with UDCA

Compound: C[C@H](CCC(=O)O)[C@H]1CC[C@H]2[C@@H]3[C@@H](O)C[C@@H]4C[C@H](O)CC[C@]4(C)[C@H]3CC[C@]12C [UDCA, ursodeoxycholic acid]
- Bile lipid classes: Bile salts (BS) [1]: 47.5 mol %
- Bile lipid classes: Cholesterol (CH) [1]: 16.8 mol %
- Bile lipid classes: Phospholipids (PL) [1]: 35.7 mol %
- Concentration of bile PL [1]: 7.77
- Lipid ratios: CH/BS [1]: 0.35
- Lipid ratios: CH/PL [1]: 0.47
- Lipid ratios: PL/BS [1]: 0.75
- Cholesterol saturation index (CSI) [1]: 4.0
- Bile lipid classes: Bile salts (BS) [2]: 72 mol %
- Bile lipid classes: Cholesterol (CH) [2]: 8.2 mol %
- Bile lipid classes: Phospholipids (PL) [2]: 19.7 mol %
- Concentration of bile PL [2]: 6.03
- Lipid ratios: CH/BS [2]: 0.11
- Lipid ratios: CH/PL [2]: 0.42
- Lipid ratios: PL/BS [2]: 0.27
- Cholesterol saturation index (CSI) [2]: 1.8
